Laboratory results reported in ChEMBL document CHEMBL1201862, “PubChem BioAssay data set” (2004).
Values joined by “and” are separate entries in the source; they are usually repeats but may differ in a detail not shown here. Equal entries are not always repeated.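 In this assay, cells in 96-well plates receive the compound at five concentrations for 48 hours. Endpoints are linearly interpolated between the surrounding concentrations. GI50: concentration for 50% inhibition of growth.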 Active and inactive are the calls of the source. No stated cut-off is given here; in the data, active = GI50 up to about 1.1 µM and inactive = higher.

Columns and labels:
Assay in all cases: NCI tumour cell line growth inhibition, 48 h
DU-145 = tested on: DU-145
MDA-N = tested on: MDA-N
NCI-H460 = tested on: NCI-H460
RXF 393 = tested on: RXF 393
HOP-92 = tested on: HOP-92
NCI-H23 = tested on: NCI-H23
KM12 = tested on: KM12
A498 = tested on: A498
MDA-MB-435 = tested on: MDA-MB-435
SF-295 = tested on: SF-295
IGROV-1 = tested on: IGROV-1
PC-3 = tested on: PC-3
MCF7 = tested on: MCF7
UO-31 = tested on: UO-31
Hs-578T = tested on: Hs-578T

Measured: GI50

CCOC(=O)c1nc2cc(C(F)(F)F)ccc2nc1Nc1ccc(F)cc1
inactive: DU-145 > 100 µM | MDA-N > 100 µM | NCI-H460 18.2 µM | RXF 393 53.5 µM | HOP-92 10.8 µM | NCI-H23 74.1 µM | KM12 > 100 µM | A498 28.6 µM | MDA-MB-435 > 100 µM | SF-295 47.2 µM | IGROV-1 34.8 µM | PC-3 32.8 µM | MCF7 85.5 µM

CC(C)/C(Cl)=N\OC(=O)Nc1cccc(Cl)c1
inactive: DU-145 22.5 µM | UO-31 19.1 µM | MDA-N 14.8 µM | NCI-H460 13.7 µM | RXF 393 18.5 µM | Hs-578T 28.3 µM | NCI-H23 15.2 µM | KM12 16.5 µM | A498 17.4 µM | SF-295 36.1 µM | IGROV-1 18.6 µM | PC-3 15.9 µM | MCF7 15.8 µM

c1csc(-c2sc(-c3ccsc3)cc2Cc2ccsc2)c1
inactive: DU-145 > 10 µM | MDA-N > 10 µM | RXF 393 > 10 µM | HOP-92 > 10 µM | NCI-H23 > 10 µM | KM12 > 10 µM | MDA-MB-435 > 10 µM | SF-295 > 10 µM | IGROV-1 > 10 µM | PC-3 > 10 µM | MCF7 > 10 µM

O=c1[nH]nc(Cc2ccccc2)n1O
inactive: DU-145 > 100 µM | UO-31 > 100 µM | MDA-N > 100 µM | HOP-92 > 100 µM | Hs-578T > 100 µM | NCI-H23 > 100 µM | KM12 > 100 µM | A498 > 100 µM | MDA-MB-435 > 100 µM | SF-295 > 100 µM | IGROV-1 > 100 µM | MCF7 > 100 µM

COC(=O)[C@@H]1CC(C(C[N+](=O)[O-])c2ccc(O[Si](C)(C)C(C)(C)C)cc2)C(=O)N1C(=O)OC(C)(C)C (some centres undefined)
inactive: DU-145 > 100 µM | UO-31 32.7 µM and 60.7 µM | MDA-N > 100 µM | RXF 393 29.9 µM and 20.6 µM | HOP-92 40.1 µM and 61 µM | Hs-578T > 100 µM | KM12 > 100 µM and 76.6 µM | A498 > 100 µM | MDA-MB-435 > 100 µM and 73.5 µM | SF-295 > 100 µM and 59.2 µM | IGROV-1 > 100 µM | MCF7 45.5 µM and 29.6 µM

COc1ccc(C(=O)/C=C/c2ccc(OCCSCCCCCCCCCCSCCOc3ccc(/C=C/C(=O)c4ccc(OC)c(OC)c4)cc3)cc2)cc1OC
inactive: DU-145 > 100 µM | MDA-N > 100 µM | NCI-H460 > 100 µM | Hs-578T > 100 µM | NCI-H23 > 100 µM | KM12 > 100 µM | A498 > 100 µM | MDA-MB-435 > 100 µM | SF-295 > 100 µM | IGROV-1 > 100 µM | PC-3 > 100 µM | MCF7 > 100 µM

O=C(NN=C1CCN(Cc2ccccc2)CC1)C(O)(c1ccccc1)c1ccccc1
inactive: DU-145 > 100 µM | UO-31 > 100 µM | RXF 393 > 100 µM | HOP-92 > 100 µM | Hs-578T > 100 µM | NCI-H23 > 100 µM | KM12 > 100 µM | MDA-MB-435 > 100 µM | SF-295 > 100 µM | IGROV-1 > 100 µM | MCF7 > 100 µM

O=CNCCCN1CCN(CCCNC=O)CC1
inactive: DU-145 > 100 µM | UO-31 > 100 µM | MDA-N > 100 µM | HOP-92 > 100 µM | NCI-H23 > 100 µM | KM12 > 100 µM | A498 > 100 µM | MDA-MB-435 > 100 µM | SF-295 > 100 µM | IGROV-1 > 100 µM | PC-3 > 100 µM | MCF7 > 100 µM

O=C(Nc1ccc(Cl)cc1)c1cc(S(=O)(=O)Nc2n[nH]c(=O)[nH]2)c(SSc2cc(Cl)c(C(=O)Nc3ccc(Cl)cc3)cc2S(=O)(=O)Nc2n[nH]c(=O)[nH]2)cc1Cl
inactive: UO-31 > 100 µM | MDA-N > 100 µM | NCI-H460 > 100 µM | HOP-92 > 100 µM | Hs-578T > 100 µM | NCI-H23 > 100 µM | KM12 > 100 µM | A498 > 100 µM | MDA-MB-435 > 100 µM | SF-295 > 100 µM | IGROV-1 > 100 µM | PC-3 > 100 µM | MCF7 > 100 µM

CSc1nc2c(c(=O)[nH]1)N=C(c1ccccc1)CC(c1ccccc1)N2 (centres undefined)
inactive: DU-145 30.1 µM | UO-31 50.4 µM | MDA-N 20.7 µM | NCI-H460 13.4 µM | RXF 393 34.7 µM | HOP-92 41.5 µM | NCI-H23 31.3 µM | KM12 14.1 µM | A498 83.4 µM | MDA-MB-435 40.7 µM | SF-295 34.7 µM | IGROV-1 23.4 µM | PC-3 55.1 µM | MCF7 12.3 µM

NCCN1CCCCCc2ccccc21
inactive: DU-145 > 10 µM | UO-31 > 10 µM | NCI-H460 > 10 µM | RXF 393 > 10 µM | Hs-578T > 10 µM | NCI-H23 > 10 µM | KM12 > 10 µM | A498 > 10 µM | MDA-MB-435 > 10 µM | SF-295 > 10 µM | IGROV-1 > 10 µM | PC-3 > 10 µM | MCF7 > 10 µM

O=[N+]([O-])c1cnc(N(CCO)CCO)s1
inactive: DU-145 > 100 µM | UO-31 > 100 µM | MDA-N > 100 µM | NCI-H460 > 100 µM | RXF 393 > 100 µM | HOP-92 > 100 µM | NCI-H23 > 100 µM | KM12 > 100 µM | A498 > 100 µM | MDA-MB-435 > 100 µM | SF-295 > 100 µM | IGROV-1 > 100 µM | PC-3 > 100 µM | MCF7 > 100 µM

CCOP(=O)(OCC)OC1c2[nH]ccc2-c2cc(C(=O)OC)[nH]c2C1OC (centres undefined)
inactive: DU-145 > 100 µM | UO-31 46.3 µM | MDA-N > 100 µM | NCI-H460 56.8 µM | RXF 393 > 100 µM | Hs-578T 44.2 µM | NCI-H23 > 100 µM | KM12 58.7 µM | MDA-MB-435 77.4 µM | SF-295 > 100 µM | IGROV-1 > 100 µM | PC-3 66.8 µM | MCF7 > 100 µM

CCC1(c2ccc(OC)c(OC)c2)CCN2C(=O)C(O)CC21 (centres undefined)
inactive: DU-145 > 100 µM | UO-31 > 100 µM | MDA-N > 100 µM | NCI-H460 > 100 µM | RXF 393 > 100 µM | NCI-H23 > 100 µM | KM12 > 100 µM | MDA-MB-435 > 100 µM | SF-295 > 100 µM | IGROV-1 > 100 µM | PC-3 > 100 µM | MCF7 > 100 µM

CCC(CCCCC1CC[C@H]2CC(=O)C[C@@H]12)OC (some centres undefined)
inactive: DU-145 > 100 µM | NCI-H460 > 100 µM | RXF 393 > 100 µM | HOP-92 > 100 µM | NCI-H23 > 100 µM | A498 > 100 µM | SF-295 > 100 µM | IGROV-1 > 100 µM | MCF7 > 100 µM
